Like-named read-outs stand apart in the source and are kept apart here.
Target: Protein arginine deiminase 4 (PAD4) (Homo sapiens, UniProt Q9UM07)
Experiment: PAD4 ammonia release assay
Format: biochemical
In short: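 Ammonia release from BAEE substrate (2× mix 600 μM) was measured after 60 min at RT, following 15 min enzyme–compound preincubation (PAD4 2× 20 nM; pH 8.0 HEPES, 2 mM CaCl2, TCEP; 1.25% DMSO). Detection used OPA/DTT/EDTA for 120 min. % inhibition was taken versus reference-compound and DMSO controls; IC50 by four-parameter logistic fit.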

[1] = PAD4 ammonia release assay, BAEE substrate, 60 min at RT, read-out: Average IC50 Abs

Protein arginine deiminase 4 (PAD4), sequence (Q9UM07 whole entry): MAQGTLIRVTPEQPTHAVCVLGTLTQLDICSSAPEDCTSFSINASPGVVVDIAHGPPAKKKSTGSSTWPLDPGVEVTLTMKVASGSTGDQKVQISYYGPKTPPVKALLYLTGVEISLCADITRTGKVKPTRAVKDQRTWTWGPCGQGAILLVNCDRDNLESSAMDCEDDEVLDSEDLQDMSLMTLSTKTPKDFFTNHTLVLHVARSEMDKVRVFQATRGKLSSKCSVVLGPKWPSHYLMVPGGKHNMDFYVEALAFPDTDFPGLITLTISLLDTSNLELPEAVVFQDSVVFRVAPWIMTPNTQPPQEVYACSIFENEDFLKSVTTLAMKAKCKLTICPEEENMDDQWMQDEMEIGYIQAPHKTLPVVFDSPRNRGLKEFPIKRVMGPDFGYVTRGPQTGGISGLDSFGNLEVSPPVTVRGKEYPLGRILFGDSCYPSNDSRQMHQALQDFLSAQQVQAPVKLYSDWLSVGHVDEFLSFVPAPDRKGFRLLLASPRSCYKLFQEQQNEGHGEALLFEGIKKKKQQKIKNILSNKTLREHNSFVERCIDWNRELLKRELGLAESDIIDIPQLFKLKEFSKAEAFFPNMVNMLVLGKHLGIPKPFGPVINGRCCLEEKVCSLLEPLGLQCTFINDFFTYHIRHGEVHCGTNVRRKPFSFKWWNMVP

| SMILES | IC50 [1] [µM] | IC50 (PAD4 activity comparison, read-out: PAD4 Ammonia assay IC50) [µM] |
| --- | --- | --- |
| CCn1c(-c2cc3cccc4c3n2C(C)CN4CCCO)nc2cc(C(=O)N3C[C@H](N)C[C@@H](F)C3)cc(OC)c21 (stereo partly drawn) [Example 66, ((3R,5R)-3-amino-5-fluoropiperidin-1-yl)(1-ethyl-2-(1-(3-hydroxypropyl)-3-methyl-2,3-dihydro-1H-pyrrolo[1,2,3-de]quinoxalin-5-yl)-7-methoxy-1H-benzo[d]imidazol-5-yl)methanone] | 0.5 to 5 |  |
| COc1cc(C(=O)N2CCC[C@@H](N)C2)cc2nc(-c3cc4cccc5c4n3CCN5CCCN)n(C)c12 [Example 7] | 0.5 to 5 |  |
| COc1cc(C(=O)N2C[C@H](N)CC(F)(F)C2)cc2nc(-c3cc4cccc5c4n3CCN5CCCO)n(C)c12 [Example 18, (R)-(5-amino-3,3-difluoropiperidin-1-yl)(2-(1-(3-hydroxypropyl)-2,3-dihydro-1H-pyrrolo[1,2,3-de]quinoxalin-5-yl)-7-methoxy-1-methyl-1H-benzo[d]imidazol-5-yl)methanone] | 0.5 to 5 |  |
| Cn1c(-c2cc3cc(C#N)cc4c3n2[C@@H](C2CC2)CN4)nc2cc(C(=O)N3C[C@H]4CC[C@@H]3[C@@H]4N)cc(F)c21 [Example 118, (S)-5-(5-((1R,4R,7R)-7-amino-2-azabicyclo[2.2.1]heptane-2-carbonyl)-7-fluoro-1-methyl-1H-benzo[d]imidazol-2-yl)-3-cyclopropyl-2,3-dihydro-1H-pyrrolo[1,2,3-de]quinoxaline-8-carbonitrile] | 0.1 to 0.5 |  |
| CCC1CNc2c(Cl)ccc3cc(-c4nc5cc(C(=O)N6C[C@H]7CC[C@@H]6[C@@H]7N)cc(F)c5n4C)n1c23 (stereo partly drawn) [Example 125, ((1R,4R,7R)-7-amino-2-azabicyclo[2.2.1]heptan-2-yl)(2-(9-chloro-3-ethyl-2,3-dihydro-1H-pyrrolo[1,2,3-de]quinoxalin-5-yl)-7-fluoro-1-methyl-1H-benzo[d]imidazol-5-yl)methanone] | > 5 |  |
| COc1cc(C(=O)N2C[C@H]3CC[C@@H]2[C@@H]3N)cc2nc(-c3cc4cccc5c4n3C(C3CC3)CN5)c(C)n12 (stereo partly drawn) [Example 170, ((1R,4R,7R)-7-amino-2-azabicyclo[2.2.1]heptan-2-yl)(2-(3-cyclopropyl-2,3-dihydro-1H-pyrrolo[1,2,3-de]quinoxalin-5-yl)-5-methoxy-3-methylimidazo[1,2-a]pyridin-7-yl)methanone] | > 5 |  |
| COc1cc(C(=O)N2CCC[C@@H](N)C2)cc2nc(-c3cc4cccc5c4n3CCN5C3CC(N)C3)n(C)c12 (stereo partly drawn) [Example 32, (R)-(2-(1-(3-aminocyclobutyl)-2,3-dihydro-1H-pyrrolo[1,2,3-de]quinoxalin-5-yl)-7-methoxy-1-methyl-1H-benzo[d]imidazol-5-yl)(3-aminopiperidin-1-yl)methanone] | 0.5 to 5 |  |
| CCC1CNc2cccc3cc(-c4nc5cc(C(=O)N6C[C@H]7CC[C@@H]6[C@@H]7N)cc(OC)c5n4C)n1c23 (stereo partly drawn) [Example 102, ((1R,4R,7R)-7-amino-2-azabicyclo[2.2.1]heptan-2-yl)(2-(3-ethyl-2,3-dihydro-1H-pyrrolo[1,2,3-de]quinoxalin-5-yl)-7-methoxy-1-methyl-1H-benzo[d]imidazol-5-yl)methanone] | 0.1 to 0.5 | 0.207 |
| CCC1C(=O)Nc2cccc3cc(-c4nc5cc(C(=O)N6C[C@H]7CC[C@@H]6[C@@H]7N)cc(F)c5n4C)n1c23 (stereo partly drawn) [Example 129, 5-(5-((1R,4R,7R)-7-amino-2-azabicyclo[2.2.1]heptane-2-carbonyl)-7-fluoro-1-methyl-1H-benzo[d]imidazol-2-yl)-3-ethyl-1H-pyrrolo[1,2,3-de]quinoxalin-2(3H)-one] | 0.1 to 0.5 |  |
| Cn1c(-c2cc3ccc4c(c3n2CC2CC2)NC(=O)C4(C)C)nc2cc(C(=O)N3C[C@H]4CC[C@@H]3[C@@H]4N)cc(F)c21 [Example 141, 7-(5-((1R,4R,7R)-7-amino-2-azabicyclo[2.2.1]heptane-2-carbonyl)-7-fluoro-1-methyl-1H-benzo[d]imidazol-2-yl)-8-(cyclopropylmethyl)-3,3-dimethyl-3,8-dihydropyrrolo[3,2-g]indol-2(1H)-one] | 0.5 to 5 |  |
| CCC1CN(CCCO)c2cccc3cc(-c4nc5cc(C(=O)N6C[C@H]7CC[C@@H]6[C@@H]7N)cc(F)c5n4Cc4ccco4)n1c23 (stereo partly drawn) [Example 93, ((1R,4R,7R)-7-amino-2-azabicyclo[2.2.1]heptan-2-yl)(2-(3-ethyl-1-(3-hydroxypropyl)-2,3-dihydro-1H-pyrrolo[1,2,3-de]quinoxalin-5-yl)-7-fluoro-1-(furan-2-ylmethyl)-1H-benzo[d]imidazol-5-yl)methanone] | 0.1 to 0.5 |  |
| Cn1c(-c2cc3cccc4c3n2C(C2CC2)CN4)nc2cc(C(=O)N3C[C@H]4CC[C@@H]3[C@@H]4N)cc(F)c21 (mixture of isomers) [Example 108, ((1R,4R,7R)-7-amino-2-azabicyclo[2.2.1]heptan-2-yl)(2-(3-cyclopropyl-2,3-dihydro-1H-pyrrolo[1,2,3-de]quinoxalin-5-yl)-7-fluoro-1-methyl-1H-benzo[d]imidazol-5-yl)methanone] | ≤ 0.1 |  |
| CCC1CN(CCCO)c2cccc3cc(-c4nc5cc(C(=O)N6C[C@H](N)C[C@@H](F)C6)cc(F)c5n4CC)n1c23 (stereo partly drawn) [Example 99, ((3R,5R)-3-amino-5-fluoropiperidin-1-yl)(1-ethyl-2-(3-ethyl-1-(3-hydroxypropyl)-2,3-dihydro-1H-pyrrolo[1,2,3-de]quinoxalin-5-yl)-7-fluoro-1H-benzo[d]imidazol-5-yl)methanone] | 0.1 to 0.5 |  |
| Cn1c(-c2cc3ccc4c(c3n2CC2CC2)CC(=O)N4)nc2cc(C(=O)N3C[C@H]4CC[C@@H]3[C@@H]4N)cc(F)c21 [Example 145, 2-(5-((1R,4R,7R)-7-amino-2-azabicyclo[2.2.1]heptane-2-carbonyl)-7-fluoro-1-methyl-1H-benzo[d]imidazol-2-yl)-1-(cyclopropylmethyl)-6,8-dihydropyrrolo[2,3-e]indol-7(1H)-one] | 0.5 to 5 |  |
| COc1cc(C(=O)N2CCC3(CC2)CC3N)cc2nc(-c3cc4cccc5c4n3CCN5CCCO)n(CC3CC3)c12 (stereo not shown) [Example 56, (1-amino-6-azaspiro[2.5]octan-6-yl)(1-(cyclopropylmethyl)-2-(1-(3-hydroxypropyl)-2,3-dihydro-1H-pyrrolo[1,2,3-de]quinoxalin-5-yl)-7-methoxy-1H-benzo[d]imidazol-5-yl)methanone] | > 5 |  |
| COc1cc(C(=O)N2CC[C@@H](F)[C@@H](N)C2)cc2nc(-c3cc4cccc5c4n3CCN5CCCO)n(C)c12 [Example 20, ((3S,4R)-3-amino-4-fluoropiperidin-1-yl)(2-(1-(3-hydroxypropyl)-2,3-dihydro-1H-pyrrolo[1,2,3-de]quinoxalin-5-yl)-7-methoxy-1-methyl-1H-benzo[d]imidazol-5-yl)methanone] | 0.5 to 5 |  |
| Cn1c(-c2cc3ccn4ccnc4c3n2CC2CC2)nc2cc(C(=O)N3C[C@H]4CC[C@@H]3[C@@H]4N)cc(F)c21 [Example 150, ((1R,4R,7R)-7-amino-2-azabicyclo[2.2.1]heptan-2-yl)(2-(9-(cyclopropylmethyl)-9H-imidazo[1,2-a]pyrrolo[2,3-c]pyridin-8-yl)-7-fluoro-1-methyl-1H-benzo[d]imidazol-5-yl)methanone] | 0.1 to 0.5 |  |
| COc1cc(C(=O)N2CCC[C@@H](N)C2)cc2nc(-c3cc4cccc5c4n3CCN5CCCNC(C)=O)n(C)c12 [Example 3, (R)—N-(3-(5-(5-(3-aminopiperidine-1-carbonyl)-7-methoxy-1-methyl-1H-benzo[d]imidazol-2-yl)-2,3-dihydro-1H-pyrrolo[1,2,3-de]quinoxalin-1-yl)propyl)acetamide] | 0.5 to 5 |  |
| Cn1c(-c2cc3ccc4cc[nH]c4c3n2CC2CCC2)nc2cc(C(=O)N3C[C@H]4CC[C@@H]3[C@@H]4N)cc(F)c21 [Example 165, ((1R,4R,7R)-7-amino-2-azabicyclo[2.2.1]heptan-2-yl)(2-(1-(cyclobutylmethyl)-1,8-dihydropyrrolo[3,2-g]indol-2-yl)-7-fluoro-1-methyl-1H-benzo[d]imidazol-5-yl)methanone] | ≤ 0.1 |  |
| CC(C)N1CCc2c(ccc3cc(-c4nc5cc(C(=O)N6C[C@H]7CC[C@@H]6[C@@H]7N)cc(F)c5n4C)n(CC4CC4)c23)C1 [Example 154, ((1R,4R,7R)-7-amino-2-azabicyclo[2.2.1]heptan-2-yl)(2-(1-(cyclopropylmethyl)-7-isopropyl-6,7,8,9-tetrahydro-1H-pyrrolo[2,3-f]isoquinolin-2-yl)-7-fluoro-1-methyl-1H-benzo[d]imidazol-5-yl)methanone] | 0.5 to 5 |  |
| CN1C(=O)Cc2c1ccc1cc(-c3nc4cc(C(=O)N5C[C@H]6CC[C@@H]5[C@@H]6N)cc(F)c4n3C)n(CC3CC3)c21 [Example 146, 2-(5-((1R,4R,7R)-7-amino-2-azabicyclo[2.2.1]heptane-2-carbonyl)-7-fluoro-1-methyl-1H-benzo[d]imidazol-2-yl)-1-(cyclopropylmethyl)-6-methyl-6,8-dihydropyrrolo[2,3-e]indol-7(1H)-one] | > 5 |  |
